Non-standard residues stand in square brackets, D forms with d. Residues, ends and D or L forms follow the SMILES beside them. *: point of attachment. Palmitoyl = CCCCCCCCCCCCCCCC(=O)*; Nle = CCCC[C@H](N)C(=O)O
Target: T1, melanocortin-1 receptor MClr (Homo sapiens, UniProt Q01726)
T1 construct: The cells used to test MClr were human melanocytes; endogenous in cells; host or cells: human melanocytes
Experiment: Melanogenesis stimulation test: quantification of second messenger cAMP
Format: cell-based
From the text: Test: Study of the quantification of a second messenger: cAMP
When an agonist binds to this receptor, it leads to activation of a molecule, adenylate cyclase, which produces cAMP. Quantifying cAMP makes it possible to evaluate the affinity of a ligand for its receptor.
Protocol: The cells used to test MClr were human melanocytes.
EC50 is the ligand concentration giving 50% of maximum stimulation.

T1 sequence (Q01726 whole entry): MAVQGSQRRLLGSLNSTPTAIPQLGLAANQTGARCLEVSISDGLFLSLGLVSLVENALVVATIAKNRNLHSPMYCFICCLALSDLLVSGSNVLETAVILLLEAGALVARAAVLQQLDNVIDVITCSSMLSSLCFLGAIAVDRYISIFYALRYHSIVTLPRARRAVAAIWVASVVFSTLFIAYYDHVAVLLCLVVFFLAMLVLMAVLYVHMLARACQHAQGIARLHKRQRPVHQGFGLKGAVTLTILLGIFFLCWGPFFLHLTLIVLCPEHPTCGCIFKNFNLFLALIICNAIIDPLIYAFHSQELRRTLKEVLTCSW

| SMILES | EC50 |
| --- | --- |
| CCCCCCCCCCCCCCCC(=O)N[C@@H](CCCC)C(=O)N[C@@H](C)C(=O)N[C@@H](Cc1c[nH]cn1)C(=O)N[C@H](Cc1ccccc1)C(=O)N[C@@H](CCCNC(=N)N)C(=O)N[C@@H](Cc1c[nH]c2ccccc12)C(N)=O [Conjugate no. 13, Palm-Nle-Ala-His-DPhe-Arg-Trp-NH2] (Palmitoyl-[Nle]AH[dF]RW-NH2) | 1.6 nM |
| CCCC[C@H](NC(C)=O)C(=O)N[C@@H](C)C(=O)N[C@@H](CCCNC(=N)N)C(=O)N[C@H](Cc1ccccc1)C(=O)N[C@@H](CCCNC(=N)N)C(=O)N[C@@H](Cc1c[nH]c2ccccc12)C(N)=O [Conjugate no. 2, Ac-Nle-Ala-Arg-DPhe-Arg-Trp-NH2] (Ac-[Nle]AR[dF]RW-NH2) | 0.6 nM |

Reference: patent publication US7785577B2, “Peptides or peptidic conjugate derivatives of MSH and the use thereof for cosmetically fighting against canities” (Institut Europeen de Biologie Cellulaiare, priority 2004, dated 2010)
